The term mass density denotes the mass of a sample divided by its volume. Usually refractive index stands for a measure of how strongly the sample bends light.

The conditions of data set [1]: 298.15 K; 101.33 kPa; Liquid; Vibrating tube method.
A short description of data set [2]: refractive index (Na D-line) (dimensionless). Conditions: 298.15 K; 101.33 kPa; Liquid; Standard Abbe refractometry.

Numbers after ± are expanded uncertainties.

Take `CC(C)CC(C)(C)C` [2,2,4-trimethylpentane]: in data set [1], the mass density worked out at 687.73 ± 0.21 kg/m3. For the same compound, in data set [2], the refractive index was determined as 1.38887 ± 0.00068.

Regarding `C1COCO1` [1,3-dioxolane], the mass density in data set [1] amounted to 1058.87 ± 0.15 kg/m3. Moreover, the refractive index in data set [2] came out at 1.39779 ± 0.00068.

With `CC(C)O` [propan-2-ol], the mass density in data set [1] amounted to 781.01 ± 0.2 kg/m3. The refractive index in data set [2] is on record as 1.37509 ± 0.00068.

The record behind these values is the NIST ThermoML archive (doi:10.1021/je900327x).
